Laboratory results taken from patent US12209087B2, “AKT1 modulators” (Alterome Therapeutics, Inc., priority 2022, dated 2025).

Target: T1, full length AKT E17K (Homo sapiens, UniProt P31749, E17K)
T1 construct: host or cells: HEK-293 (ATCC CRL-1573)
Assay: NanoBRET Target Engagement (TE) Assay
Type: cell-based
Conditions: competitive tracer displacement in living cells, read-out: AKT1 E17K IC50
Excerpt: The NanoBRET™ Target Engagement (TE) Intracellular Kinase Assays are based on the NanoBRET™ System (Promega Corporation), an energy transfer technique designed to measure molecular proximity in living cells. The NanoBRET™ TE Assays measure the apparent affinity of test compounds by competitive displacement of the NanoBRET™ tracer compound, which is a cell permeable molecule engineered to be reversibly bound to a NanoLuc® luciferase-kinase fusion expressed in cells. For compound screening, when a test compound binds to the selected kinase, the BRET signal is attenuated. […] All cells were evaluated for viability prior to transfection and optimization of the transfection was done prior to experimentation. […] Following transfection, cells were washed and resuspended in Opti-MEM. NanoBRET assays were performed in white, 384-well plates (Corning) at a density of […]. All example compounds were prepared as concentrated stock solutions in DMSO (Sigma-Aldrich). Compounds are dissolved in DMSO to make 10 mM stock solution. […] A Labcyte ECHO 550 compound dispenser was used to facilitate compound transfer directly to cells. Cells were equilibrated for 2 hr with energy transfer probes and example compound prior to BRET measurements. […] For target engagement analysis, the energy transfer probes were added to the cells at concentrations optimized for the target in question (AKT E17K). Following compound incubation, NanoBRET NanoGlo Substrate (Promega Cat #N157D) and Extracellular Nanoluc Inhibitor (Promega Cat #N235C) was added according to the manufacturer's recommended protocol, and luminescence was measured on Envision Reader (Perkin Elmer) Multimode Luminometer equipped with 450 nm BPfilter (donor) and 600 nm LPfilter (acceptor), using 0.5 s integration time. Milli-BRET units (mBU) are calculated by multiplying the raw BRET values by 1000. Apparent tracer affinity values (EC50) were determined using the sigmoidal dose-response (variable slope).
Competitive displacement data were then plotted and data were fit to determine the EC50 value for each example compound.

T1 sequence (P31749 whole entry E17K): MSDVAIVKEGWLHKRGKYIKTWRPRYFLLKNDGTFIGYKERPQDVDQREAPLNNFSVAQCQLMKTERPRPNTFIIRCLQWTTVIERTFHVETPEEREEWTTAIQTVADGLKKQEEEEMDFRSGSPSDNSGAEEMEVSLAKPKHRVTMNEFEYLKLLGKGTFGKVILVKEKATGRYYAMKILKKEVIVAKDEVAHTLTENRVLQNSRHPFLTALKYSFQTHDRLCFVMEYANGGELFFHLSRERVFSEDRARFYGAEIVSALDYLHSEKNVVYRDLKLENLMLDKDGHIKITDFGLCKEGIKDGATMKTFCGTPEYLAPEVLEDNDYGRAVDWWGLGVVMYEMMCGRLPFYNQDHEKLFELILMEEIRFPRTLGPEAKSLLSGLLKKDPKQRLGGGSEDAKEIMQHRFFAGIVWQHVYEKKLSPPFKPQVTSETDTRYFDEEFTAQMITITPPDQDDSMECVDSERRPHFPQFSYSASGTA

Structure (SMILES) | IC50 [nM]
N#Cc1cccc(C(=O)NC2CCN(Cc3ccc(-n4c(-c5cccnc5N)nc5ccc(-c6ccccc6)nc54)cc3)CC2)n1 [Example 56, N-(1-(4-(2-(2-Aminopyridin-3-yl)-5-phenyl-3H-imidazo[4,5-b]pyridin-3-yl)benzyl)piperidin-4-yl)-6-cyanopicolinamide] | < 15
N#Cc1cncc(C(=O)NC2CCN(Cc3ccc(-n4c(-c5cccnc5N)nc5ccc(-c6ccccc6)nc54)cc3)CC2)c1 [Example 57, N-(1-(4-(2-(2-Aminopyridin-3-yl)-5-phenyl-3H-imidazo[4,5-h]pyridin-3-yl)benzyl)piperidin-4-yl)-5-cyanonicotinamide] | 60 to 600
N#Cc1ncccc1C(=O)NC1CCN(Cc2ccc(-n3c(-c4cccnc4N)nc4ccc(-c5ccccc5)nc43)cc2)CC1 [Example 58, N-(1-(4-(2-(2-Aminopyridin-3-yl)-5-phenyl-3H-imidazo[4,5-h]pyridin-3-yl)benzyl)piperidin-4-yl)-2-cyanonicotinamide] | < 15
N#Cc1cnccc1C(=O)NC1CCN(Cc2ccc(-n3c(-c4cccnc4N)nc4ccc(-c5ccccc5)nc43)cc2)CC1 [Example 59, N-(1-(4-(2-(2-Aminopyridin-3-yl)-5-phenyl-3H-imidazo[4,5-b]pyridin-3-yl)benzyl)piperidin-4-yl)-3-cyanoisonicotinamide] | 15 to 60
N#Cc1ccncc1C(=O)NC1CCN(Cc2ccc(-n3c(-c4cccnc4N)nc4ccc(-c5ccccc5)nc43)cc2)CC1 [Example 60, N-(1-(4-(2-(2-Aminopyridin-3-yl)-5-phenyl-3H-imidazo[4,5-b]pyridin-3-yl)benzyl)piperidin-4-yl)-4-cyanonicotinamide] | < 15
N#Cc1cccnc1C(=O)NC1CCN(Cc2ccc(-n3c(-c4cccnc4N)nc4ccc(-c5ccccc5)nc43)cc2)CC1 [Example 61, N-(1-(4-(2-(2-Aminopyridin-3-yl)-5-phenyl-3H-imidazo[4,5-b]pyridin-3-yl)benzyl)piperidin-4-yl)-3-cyanopicolinamide] | < 15
N#Cc1cc(NC2CCN(Cc3ccc(-n4c(-c5cccnc5N)nc5cccnc54)cc3)CC2)ccn1 [Example 62, 4-((1-(4-(2-(2-Aminopyridin-3-yl)-3H-imidazo[4,5-b]pyridin-3-yl)benzyl)piperidin-4-yl)amino)picolinonitrile] | 600 to 10000
N#Cc1cccc(NC2CCN(Cc3ccc(-n4c(-c5cccnc5N)nc5cccnc54)cc3)CC2)n1 [Example 63, 6-((1-(4-(2-(2-Aminopyridin-3-yl)-3H-imidazo[4,5-b]pyridin-3-yl)benzyl)piperidin-4-yl)amino)picolinonitrile] | 600 to 10000
N#Cc1cc(NC2CCN(Cc3ccc(-n4c(-c5cccnc5N)nc5cccnc54)cc3)CC2)ncn1 [Example 64, 6-((1-(4-(2-(2-aminopyridin-3-yl)-3H-imidazo[4,5-b]pyridin-3-yl)benzyl)piperidin-4-yl)amino)pyrimidine-4-carbonitrile] | 600 to 10000
N#Cc1cncc(N2CCN(Cc3ccc(-n4c(-c5cccnc5N)nc5ccc(-c6ccccc6)nc54)cc3)CC2)c1 [Example 65, 5-(4-(4-(2-(2-Aminopyridin-3-yl)-5-phenyl-3H-imidazo[4,5-b]pyridin-3-yl)benzyl)piperazin-1-yl)nicotinonitrile] | 60 to 600
N#Cc1ccnc(N2CCN(Cc3ccc(-n4c(-c5cccnc5N)nc5ccc(-c6ccccc6)nc54)cc3)CC2)c1 [Example 66, 2-(4-(4-(2-(2-Aminopyridin-3-yl)-5-phenyl-3H-imidazo[4,5-b]pyridin-3-yl)benzyl)piperazin-1-yl)isonicotinonitrile] | 600 to 10000
N#Cc1cncc(N2CCN(Cc3ccc(-n4c(-c5cccnc5N)nc5ccc(-c6ccccc6)nc54)cc3)CC2)n1 [Example 67, 6-(4-(4-(2-(2-Aminopyridin-3-yl)-5-phenyl-3H-imidazo[4,5-b]pyridin-3-yl)benzyl)piperazin-1-yl)pyrazine-2-carbonitrile] | 60 to 600
